Measurements as given in article PMC10155203 (Molecular Pharmaceutics, 2023).
Read-outs that look alike come from different tables or passages of the source.

Assays:
[1] = cited from earlier work; for median Tmax: humans, single oral dose
[2] = Study 1: food effect clinical study, single oral dose of encorafenib 100 mg, fasted vs high-fat meal, plasma PK and safety; type: in vivo, human; conditions: for AUC(0-inf) / AUC(0-t) / Cmax: GM (GCV%); for half-life: arithmetic mean ± SD; for Vd/F / CL/F: mean ± SD; for Vd/F: read-out: Vz/F; for Tmax: median (range)
Experimental: Both studies were conducted at the Celerion Clinical Research Unit in Lincoln, NE. The trial protocols and informed consent documentation were reviewed and approved by the institutional review boards at the center. These studies were conducted in compliance with the ethical principles originating in or derived from the Declaration of Helsinki and in compliance with all International Council for Harmonization Good Clinical Practice Guideline.
In study 1, participants were randomized to 2 treatment sequences. Participants were either fasted or fed a high-fat meal on day 1 of the first period and received the alternate treatment on day 1 of the second period. Each dose was separated by a washout period of at least 7 days. […] The high-fat breakfast consisted of 2 slices of buttered toast, 2 fried eggs, 2 strips of bacon, 4 oz. of hash brown potatoes, and 240 mL of whole milk. This breakfast met the criteria specified in the FDA guidance for a high-fat meal.[6] […] Water (except water provided with each dosing) was restricted 1 h prior to and 1 h after each study drug administration but was allowed ad libitum at all other times. Participants were housed from day −1 of each period until after the 36 h blood draw and/or study procedures on day 2. Participants returned to the clinical research unit for the 48 and 72 h blood draws.
Additionally, participants were instructed not to crush, split, or chew the study drug.
Serial blood samples for PK were collected in Study 1 predose and at 0.25, 0.5, 1, 1.5, 2, 2.5, 3, 3.5, 4, 5, 6, 8, 10, 12, 24, 36, and 72 h after the day 1 dose in each period.
The actual sample collection times were used for the PK parameter analysis.
The overall safety profile was characterized by laboratory test abnormalities, physical examination, vital signs, ECGs, and AEs. […] Triplicate ECGs were also measured at the end of the studies or upon early termination.
These were back-transformed to obtain the geometric LSMs and ratios of LSMs (geometric mean ratios [GMRs]), and the corresponding 90% CIs of the GMRs, on the original scale.

CYP3A4 = test system: CYP3A4; design: method as in PMID 27693678; conditions: fitted using in vivo data; cited from earlier work
[3] = design: method as in PMID 27693678; conditions: estimated using PKPlus module, cited from earlier work
[4] = single radiolabeled dose of 100 mg
[5] = human, plasma, po, 100 mg, study 1, 100 mg single oral dose, fasted
[6] = human, plasma, po, 100 mg, study 1, 100 mg single oral dose, fed
[7] = study 1, 100 mg single oral dose, fasted
[8] = study 1, 100 mg single oral dose, fed

COC(=O)N[C@@H](C)CNc1nccc(-c2cn(C(C)C)nc2-c2cc(Cl)cc(NS(C)(=O)=O)c2F)n1 [encorafenib, Encorafenib]
dose proportionality ([1]; dose range of 50 to 700 mg QD after a single dose): approximately dose proportional | apparent volume of distribution ([1]; geometric mean (coefficient of variation 70%)): 164 L | median Tmax ([1]; fasted state): approximately 2 h | median Tmax ([1]; fed state): ~4 h | dose absorbed ([1]; oral): at least 86% | administered dose recovered in feces [1, 4]: 47% | administered dose recovered in feces unchanged [1, 4]: 5% | administered dose recovered in urine [1, 4]: 47% | administered dose recovered in urine unchanged [1, 4]: 2% | AUC(0-inf) [2, 5]: 3120 ng·h/mL | AUC(0-t) [2, 5]: 3130 ng·h/mL | Cmax [2, 5]: 962 ng/mL | half-life [2, 5]: 4.79 ± 3.79 h | Vd/F [2, 5]: 226 ± 207 L | Tmax ([2]; human, plasma, po, 100 mg, study 1, 100 mg single oral dose, fasted, read-out: Tmax): 1.5 h | AUC(0-t) [2, 6]: 3020 ng·h/mL | Cmax [2, 6]: 621 ng/mL | half-life [2, 6]: 5.61 ± 3.69 h | Vd/F [2, 6]: 262 ± 163 L | Tmax ([2]; human, plasma, po, 100 mg, study 1, 100 mg single oral dose, fed, read-out: Tmax): 3.5 h | AUC(0-inf) ([2]; human, plasma, po, 100 mg, study 1, encorafenib 100 mg single oral dose, fed (high-fat meal)): 3030 ng·h/mL | tolerability ([2]; single oral dose of 100 mg, healthy participants): tolerated | changes in vital signs, laboratory values, or ECG measurements ([2]; study 1): No clinically significant changes | participants reporting headache ([2]; study 1): 73% | participants who discontinued due to an AE related to encorafenib ([2]; study 1): 2 participants | severity of AEs ([2]; study 1): all mild in severity | CL/F [2, 7]: 34.64 ± 14.209 L/h | Tmax [2, 7]: 1.495 (0.997, 3.49) h | CL/F [2, 8]: 35.13 ± 12.535 L/h | Tmax [2, 8]: 3.499 (2.00, 5.00) h | delay of median Tmax under fed conditions ([2]; study 1, fed vs fasted): 2 h | Cmax lower in fed state than fasted ([2]; study 1, fed vs fasted, 100 mg): 36% | decrease in AUCinf with a high-fat meal ([2]; study 1, fed vs fasted, 100 mg): 4% | decrease in AUClast with a high-fat meal ([2]; study 1, fed vs fasted, 100 mg): 4% | participants reporting AEs ([2]; study 1, following encorafenib in the fasted state): 79% | participants reporting AEs ([2]; study 1, following encorafenib in the fed state): 92% | participants reporting flushing ([2]; study 1, most common AE): 83% | participants who discontinued due to AEs ([2]; study 1, of 40 participants who entered): 6 participants | participants reporting AEs ([2]; study 1, overall): 95% | gut CYP3A4 Km (CYP3A4): 213.9 mg/L | gut CYP3A4 Vmax (CYP3A4): 0.0945 mg/s | liver CYP3A4 Km (CYP3A4): 213.9 mg/L | liver CYP3A4 Vmax (CYP3A4): 0.0945 mg/s | clearance ([3]; 2-compartmental, 100 mg fasted): 16.08 L/h[31] | K10 [3]: 0.197 h^–1[31] | K12 [3]: 0.173 h^–1[31] | K21 [3]: 0.016 h^–1[31]
